Measured values from article PMC11822212, “High-throughput screening identifies Aurora kinase B as a critical therapeutic target for Merkel cell carcinoma” (Nature Communications, 2025).

Tests used:
NIH-3T3 cells = experiment: qHTS cell viability (CellTiter-Glo, 72 h; primary screen), control cell line; type: cell-based, mouse
WAGA cells (VP-MCC) = experiment: qHTS cell viability (CellTiter-Glo, 72 h; primary and follow-up small molecule screen); type: cell-based, human
[1] = tested on: MCC cell lines (WAGA, MKL-1, MKL-2, MCC13, MCC26, UISO); experiment: qHTS cell viability, all six MCC cell lines as a group (mean AUC, MCC.avg); type: cell-based, human; conditions: mean AUC of six MCC cell lines
[2] = tested on: VN-MCC cell lines (MCC13, MCC26, UISO); experiment: qHTS cell viability, VN-MCC cell lines as a group (mean AUC, VN.MCC.avg); type: cell-based, human; conditions: for VN-MCC_Avg_AUC: mean AUC of VN-MCC cell lines
MKL-1 cells (VP-MCC) = experiment: qHTS cell viability (CellTiter-Glo, 72 h; primary and follow-up small molecule screen); type: cell-based, human
MKL-2 cells (VP-MCC) = experiment: as above; type: cell-based, human
[3] = tested on: six MCC cell lines and four control cell lines; experiment: qHTS cell viability, all 10 cell lines screened; type: cell-based
HACAT cells = experiment: qHTS cell viability (CellTiter-Glo, 72 h; primary screen), control cell line; type: cell-based, human
[4] = tested on: VP-MCC cell lines (WAGA, MKL-1, MKL-2); experiment: qHTS cell viability, VP-MCC cell lines as a group (mean AUC, VP.MCC.avg); type: cell-based, human; conditions: for VP-MCC_Avg_AUC: mean AUC of VP-MCC cell lines
HEK293T cells = experiment: qHTS cell viability (CellTiter-Glo, 72 h; primary screen), control cell line; type: cell-based, human
[5] = tested on: control cell lines (HACAT, HEK293T, CRL-7250, NIH-3T3); experiment: qHTS cell viability, control cell lines as a group (mean AUC, Control.avg); type: cell-based; conditions: mean AUC of control cell lines
MCC26 cells (VN-MCC) = experiment: qHTS cell viability (CellTiter-Glo, 72 h; primary and follow-up small molecule screen); type: cell-based, human
CRL-7250 cells = experiment: qHTS cell viability (CellTiter-Glo, 72 h; primary screen), control cell line; type: cell-based
MCC13 cells (VN-MCC) = experiment: qHTS cell viability (CellTiter-Glo, 72 h; primary and follow-up small molecule screen); type: cell-based, human
UISO cells (VN-MCC) = experiment: as above; type: cell-based, human
[6] = MIPE library, 11-point DRC, control cell line, sheet S2E
[7] = area under the dose-response curve, NIH3T3 control cells, AUC<450 = reduced viability
[8] = MIPE library, 11-point DRC, sheet S2E
[9] = area under the dose-response curve, WAGA cells, AUC<450 = reduced viability
[10] = area under the dose-response curve, MKL-1 cells, AUC<450 = reduced viability
[11] = area under the dose-response curve, MKL-2 cells, AUC<450 = reduced viability
[12] = area under the dose-response curve, HACAT control cells, AUC<450 = reduced viability
[13] = area under the dose-response curve, HEK293T control cells, AUC<450 = reduced viability
[14] = area under the dose-response curve, MCC26 cells, AUC<450 = reduced viability
[15] = area under the dose-response curve, CRL7250 control cells, AUC<450 = reduced viability
[16] = area under the dose-response curve, MCC13 cells, AUC<450 = reduced viability
[17] = area under the dose-response curve, UISO cells, AUC<450 = reduced viability

## CC(=O)O[C@]1(C(C)=O)CC[C@H]2[C@@H]3C=C(C)C4=CC(=O)CC[C@]4(C)[C@H]3CC[C@@]21C [Megestrol acetate]
NIH-3T3 cells; [6]
  NIH3T3_AUC: 472.047
NIH-3T3 cells; [7]
  NIH3T3_AUC: 478.678
WAGA cells (VP-MCC); [8]
  WAGA_AUC: 348.793
WAGA cells (VP-MCC); [9]
  WAGA_AUC: 442.363
WAGA cells (VP-MCC); follow-up screen, WAGA, replicate 1
  Area under the dose-response curve (AUC) WAGA Replicate 1: 536.2
WAGA cells (VP-MCC); follow-up screen, WAGA, replicate 2
  Area under the dose-response curve (AUC) WAGA Replicate 2: 483.3
WAGA cells (VP-MCC); follow-up screen, WAGA, replicate 3
  Area under the dose-response curve (AUC) WAGA Replicate 3: 478.6
[1]; MIPE library, sheet S2E
  MCC_Avg_AUC: 424.384
[2]; MIPE library, Control AUC minus VN-MCC AUC (therapeutic window), sheet S2E
  Control-VN-MCC: -9.613
[2]; MIPE library, sheet S2E
  VN-MCC_Avg_AUC: 473.519
MKL-1 cells (VP-MCC); [8]
  MKL1_AUC: 380.312
MKL-1 cells (VP-MCC); [10]
  MKL1_AUC: 437.052
MKL-1 cells (VP-MCC); follow-up screen, MKL-1, replicate 1
  Area under the dose-response curve (AUC) MKL-1 Replicate 1: 482.4
MKL-1 cells (VP-MCC); follow-up screen, MKL-1, replicate 2
  Area under the dose-response curve (AUC) MKL-1 Replicate 2: 475.6
MKL-1 cells (VP-MCC); follow-up screen, MKL-1, replicate 3
  Area under the dose-response curve (AUC) MKL-1 Replicate 3: 473.0
MKL-2 cells (VP-MCC); [8]
  MKL2_AUC: 396.638
MKL-2 cells (VP-MCC); [11]
  MKL2_AUC: 447.482
MKL-2 cells (VP-MCC); follow-up screen, MKL-2, replicate 1
  Area under the dose-response curve (AUC) MKL-2 Replicate 1: 460.3
MKL-2 cells (VP-MCC); follow-up screen, MKL-2, replicate 2
  Area under the dose-response curve (AUC) MKL-2 Replicate 2: 492.7
MKL-2 cells (VP-MCC); follow-up screen, MKL-2, replicate 3
  Area under the dose-response curve (AUC) MKL-2 Replicate 3: 490.0
[3]; MIPE library, Control AUC minus MCC AUC (therapeutic window), sheet S2E
  Control-MCC: 39.5225
HACAT cells; [6]
  HACAT_AUC: 434.851
HACAT cells; [12]
  HACAT_AUC: 455.962
[4]; MIPE library, Control AUC minus VP-MCC AUC (therapeutic window), sheet S2E
  Control-VP-MCC: 88.658
[4]; MIPE library, sheet S2E
  VP-MCC_Avg_AUC: 375.248
HEK293T cells; [6]
  HEK293T_AUC: 472.9
HEK293T cells; [13]
  HEK293T_AUC: 457.911
[5]; MIPE library, sheet S2E
  Control_Avg_AUC: 463.906
MCC26 cells (VN-MCC); [8]
  MCC26_AUC: 477.94
MCC26 cells (VN-MCC); [14]
  MCC26_AUC: 486.411
MCC26 cells (VN-MCC); follow-up screen, MCC26, replicate 1
  Area under the dose-response curve (AUC) MCC26 Replicate 1: 464.5
MCC26 cells (VN-MCC); follow-up screen, MCC26, replicate 2
  Area under the dose-response curve (AUC) MCC26 Replicate 2: 445.6
MCC26 cells (VN-MCC); follow-up screen, MCC26, replicate 3
  Area under the dose-response curve (AUC) MCC26 Replicate 3: 484.7
CRL-7250 cells; [6]
  CRL7250_AUC: 475.825
CRL-7250 cells; [15]
  CRL7250_AUC: 475.174
MCC13 cells (VN-MCC); [8]
  MCC13_AUC: 479.341
MCC13 cells (VN-MCC); [16]
  MCC13_AUC: 479.661
MCC13 cells (VN-MCC); follow-up screen, MCC13, replicate 1
  Area under the dose-response curve (AUC) MCC13 Replicate 1: 522.1
MCC13 cells (VN-MCC); follow-up screen, MCC13, replicate 2
  Area under the dose-response curve (AUC) MCC13 Replicate 2: 498.9
MCC13 cells (VN-MCC); follow-up screen, MCC13, replicate 3
  Area under the dose-response curve (AUC) MCC13 Replicate 3: 453.4
UISO cells (VN-MCC); [8]
  UISO_AUC: 463.276
UISO cells (VN-MCC); [17]
  UISO_AUC: 481.624
UISO cells (VN-MCC); follow-up screen, UISO, replicate 1
  Area under the dose-response curve (AUC) UISO Replicate 1: 487.9
UISO cells (VN-MCC); follow-up screen, UISO, replicate 2
  Area under the dose-response curve (AUC) UISO Replicate 2: 467.2
UISO cells (VN-MCC); follow-up screen, UISO, replicate 3
  Area under the dose-response curve (AUC) UISO Replicate 3: 452.8

## Oc1ccc(O)cc1 [Hydroquinone]
NIH-3T3 cells; NPC library, qHTS dose-response AUC, NIH3T3 control
  NIH3T3_AUC: 488.45
NIH-3T3 cells; [7]
  NIH3T3_AUC: 488.45
WAGA cells (VP-MCC); NPC library, qHTS dose-response AUC, WAGA
  WAGA_AUC: 370.144
WAGA cells (VP-MCC); [9]
  WAGA_AUC: 370.144
[1]; NPC library
  MCC_Avg_AUC: 442.057
[2]; NPC library
  VN-MCC_Avg_AUC: 488.855
[2]; NPC library, therapeutic window: Control avg AUC minus VN-MCC avg AUC
  Control-VN-MCC: -1.637
MKL-1 cells (VP-MCC); NPC library, qHTS dose-response AUC, MKL1
  MKL1_AUC: 415.173
MKL-1 cells (VP-MCC); [10]
  MKL1_AUC: 415.173
MKL-2 cells (VP-MCC); NPC library, qHTS dose-response AUC, MKL2
  MKL2_AUC: 400.457
MKL-2 cells (VP-MCC); [11]
  MKL2_AUC: 400.457
[3]; NPC library, therapeutic window: Control avg AUC minus MCC avg AUC
  Control-MCC: 45.1616
HACAT cells; NPC library, qHTS dose-response AUC, HACAT control
  HACAT_AUC: 491.952
HACAT cells; [12]
  HACAT_AUC: 491.952
[4]; NPC library
  VP-MCC_Avg_AUC: 395.258
[4]; NPC library, therapeutic window: Control avg AUC minus VP-MCC avg AUC
  Control-VP-MCC: 91.96
HEK293T cells; NPC library, qHTS dose-response AUC, HEK293T control
  HEK293T_AUC: 480.593
HEK293T cells; [13]
  HEK293T_AUC: 480.593
[5]; NPC library
  Control_Avg_AUC: 487.218
MCC26 cells (VN-MCC); NPC library, qHTS dose-response AUC, MCC26
  MCC26_AUC: 512.585
MCC26 cells (VN-MCC); [14]
  MCC26_AUC: 512.585
CRL-7250 cells; NPC library, qHTS dose-response AUC, CRL7250 control
  CRL7250_AUC: 487.877
CRL-7250 cells; [15]
  CRL7250_AUC: 487.877
MCC13 cells (VN-MCC); NPC library, qHTS dose-response AUC, MCC13
  MCC13_AUC: 503.441
MCC13 cells (VN-MCC); [16]
  MCC13_AUC: 503.441
UISO cells (VN-MCC); NPC library, qHTS dose-response AUC, UISO
  UISO_AUC: 450.538
UISO cells (VN-MCC); [17]
  UISO_AUC: 450.538
